Like-named read-outs stand apart in the source and are kept apart here.
How the values were obtained:
[1] = target: T1, ASIC1a (Homo sapiens, UniProt P78348); experiment: Calcium imaging of MES-induced calcium response (FLIPR); assay type: cell-based; design: host or cells: HEK293
T1 sequence (P78348 1-528): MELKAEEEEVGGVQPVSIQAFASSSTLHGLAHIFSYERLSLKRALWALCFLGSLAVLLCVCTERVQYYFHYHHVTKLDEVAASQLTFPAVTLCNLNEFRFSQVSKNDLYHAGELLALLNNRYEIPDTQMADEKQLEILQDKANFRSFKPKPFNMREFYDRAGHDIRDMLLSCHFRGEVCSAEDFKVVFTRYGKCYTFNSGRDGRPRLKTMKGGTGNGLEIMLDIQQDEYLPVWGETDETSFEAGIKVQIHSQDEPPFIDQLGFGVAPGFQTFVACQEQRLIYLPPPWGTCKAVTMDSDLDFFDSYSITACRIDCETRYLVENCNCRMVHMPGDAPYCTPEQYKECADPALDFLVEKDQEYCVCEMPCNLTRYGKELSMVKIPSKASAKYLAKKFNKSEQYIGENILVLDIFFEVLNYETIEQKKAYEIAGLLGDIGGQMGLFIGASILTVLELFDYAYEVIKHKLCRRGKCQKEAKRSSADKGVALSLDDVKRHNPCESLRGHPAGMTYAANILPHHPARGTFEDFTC

[2] = system: formalin-induced pain; experiment: Formalin test, model of acute tonic pain; assay type: in vivo; settings: rat; for Effect on pain intensity (flinching or licking behaviors): s.c. 30 min prior to formalin injection; for ED50: sc, s.c. 30 min prior to formalin, licking and biting episodes in phase IIa, read-out: ED50, effective dose where the pain score is reduced by half
Procedure: Male Sprague-Dawley rats are housed together in groups of three animals under standard conditions with unrestricted access to food and water. All experiments are conducted according to the ethical guidelines for investigations of experimental pain in conscious animals (Zimmerman, 1983)
Assessment of formalin-induced flinching behavior in normal, uninjured rats (body weight 150-180 g) is made with the use of an Automated Nociception Analyser (University of California, San Diego, USA). Briefly, this involves placing a small C-shaped metal band (10 mm wide×27 mm long) on the hindpaw of the rat to be tested. The rats (four rats are included in each testing session) are then placed in a cylindrical plexiglass observation chamber (diameter 30.5 cm and height 15 cm) for 20 min for adaptation purposes prior to being administered drug or vehicle according to the experimental paradigm being followed. After adaptation, individual rats are then gently restrained and formalin (5% in saline, 50 μl, s.c.) is injected into the plantar surface of the hindpaw using a 27G needle. Rats are then returned to their separate observation chambers, each of which are in turn situated upon an enclosed detection device consisting of two electromagnetic coils designed to produce an electromagnetic field in which movement of the metal band could be detected. […] A sampling interval of 1 min is used and on the basis of the resulting response patterns 5 phases of nociceptive behaviour are identified and scored: first phase (P1; 0-5 min), interphase (Int; 6-15 min), second phase (P2; […]), phase 2A (P2A; 16-40 min) and phase 2B (P2B; 41-60 min).
Nociceptive behavior is also determined manually every 5 min by measuring the amount of time spent in each of four behavioral categories: 0, treatment of the injected hindpaw is indistinguishable from that of the contralateral paw; 1, the injected paw has little or no weight placed on it; 2, the injected paw is elevated and is not in contact with any surface; 3, the injected paw is licked, bitten, or shaken. A weighted nociceptive score, ranging from 0 to 3 is calculated by multiplying the time spent in each category by the category weight, summing these products, and dividing by the total time for each 5 min block of time. […] On the basis of the resulting response patterns, […] of nociceptive behavior are identified and scored: first phase (P1; 0-5 min), interphase (Int; 6-15 min), second phase (P2; […]), phase 2A (P2A; 16-40 min) and phase 2B (P2B; 41-60 min).
Statistical analysis is performed using the Prism™ 4.01 software package (GraphPad, San Diego, Calif., USA). The difference in response levels between treatment groups and control vehicle group is analyzed using an ANOVA followed by Bonferroni's method for post-hoc pair-wise comparisons. […]

| Compound | IC50 [1] [µM] | Effect on pain intensity (flinching or licking behaviors) [2] | ED50 [2] [mg/kg] | IC50 ([1]; ASIC1a expressing HEK293 cells, MES-induced calcium response, read-out: IC50 (FLIPR)) [µM] |
| --- | --- | --- | --- | --- |
| CN1CCc2c(-c3ccccc3)cc(C#N)c(N)c2C1 [Compound 203, 8-Amino-2-methyl-5-phenyl-1,2,3,4-tetrahydro-isoquinoline-7-carbonitrile] | < 10 | dose-dependent reduction of the pain intensity | 6 |  |
| COc1ccc(F)cc1-c1cc(C#N)c(N)c2c1CCN(C)C2 [Compound 206, 8-Amino-5-(5-fluoro-2-methoxy-phenyl)-2-methyl-1,2,3,4-tetrahydro-isoquinoline-7-carbonitrile] |  | dose-dependent reduction of the pain intensity | 50 | 20 to 40 |

Source: patent US20080004272A1, “Compositions and methods for modulating gated ion channels” (PainCeptor Pharma Corporation, priority 2006, published 2008)
